Source: ChEMBL document CHEMBL1201861, “Genomics of Drug Sensitity in Cancer screening data, Wellcome Trust Sanger Institute”

How the values were obtained:
Assay in all cases: cells
[1] = tested on: COLO-829; type: functional, cell-based, Homo sapiens; conditions: Homo sapiens, COLO-829
Description: SANGER: Inhibition of human COLO-829 cell growth in a cell viability assay.

[2] = tested on: Calu-3; type: functional, cell-based, Homo sapiens; conditions: Homo sapiens, Calu-3;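 note: growth inhibition of human Calu-3 cells, determined with a cell viability assay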
Description: SANGER: Inhibition of human Calu-3 cell growth in a cell viability assay.

[3] = tested on: Calu-6; type: functional, cell-based, Homo sapiens; conditions: Homo sapiens, Calu-6;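 note: growth of human Calu-6 cells, read out by a cell viability assay, IC50 marking inhibition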
Description: SANGER: Inhibition of human Calu-6 cell growth in a cell viability assay.

[4] = tested on: D-247MG; type: functional, cell-based, Homo sapiens; conditions: Homo sapiens, D-247MG
Description: SANGER: Inhibition of human D-247MG cell growth in a cell viability assay.

[5] = tested on: D283 Med; type: functional, cell-based, Homo sapiens; conditions: Homo sapiens, D283 Med
Description: SANGER: Inhibition of human D-283MED cell growth in a cell viability assay.

[6] = tested on: EGI-1; type: functional, cell-based, Homo sapiens; conditions: Homo sapiens, EGI-1;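 note: cell viability readout used to gauge growth inhibition of EGI-1 cells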
Description: SANGER: Inhibition of human EGI-1 cell growth in a cell viability assay.

[7] = tested on: EOL1; type: functional, cell-based; conditions: Homo sapiens;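 note: growth inhibition of EoL-1 cells, read out by a cell viability assay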
Description: SANGER: Inhibition of human EoL-1-cell cell growth in a cell viability assay.

[8] = tested on: G-402; type: functional, cell-based, Homo sapiens; conditions: Homo sapiens, G-402
Description: SANGER: Inhibition of human G-402 cell growth in a cell viability assay.

[9] = tested on: GOTO; type: functional, cell-based, Homo sapiens; conditions: Homo sapiens, GOTO;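 note: growth inhibition of GOTO cells, read out by a cell viability assay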
Description: SANGER: Inhibition of human GOTO cell growth in a cell viability assay.

[10] = tested on: HCC2218; type: functional, cell-based; conditions: Homo sapiens;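 note: cell viability assay read-out, with IC50 given as the concentration that inhibits growth of the cell line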
Description: SANGER: Inhibition of human HCC2218 cell growth in a cell viability assay.

[11] = tested on: HH; type: functional, cell-based; conditions: Homo sapiens
Description: SANGER: Inhibition of human HH cell growth in a cell viability assay.

[12] = tested on: HT-29; type: functional, cell-based, Homo sapiens; conditions: Homo sapiens, HT-29;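 note: growth inhibition of human HT-29 cells, read out by a cell viability assay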
Description: SANGER: Inhibition of human HT-29 cell growth in a cell viability assay.

[13] = tested on: HuP-T3; type: functional, cell-based, Homo sapiens; conditions: Homo sapiens, HuP-T3;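 note: HuP-T3 cell growth inhibition, read out with a cell viability assay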
Description: SANGER: Inhibition of human HuP-T3 cell growth in a cell viability assay.

[14] = tested on: KLE; type: functional, cell-based, Homo sapiens; conditions: Homo sapiens, KLE;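 note: growth inhibition of human KLE cells, read out with a cell viability assay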
Description: SANGER: Inhibition of human KLE cell growth in a cell viability assay.

[15] = tested on: KP-N-YS; type: functional, cell-based; conditions: Homo sapiens;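 note: cell viability assay measuring inhibition of cell line growth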
Description: SANGER: Inhibition of human KP-N-YS cell growth in a cell viability assay.

[16] = tested on: LAMA-84; type: functional, cell-based; conditions: Homo sapiens;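 note: growth inhibition of LAMA-84 cells, read out with a cell viability assay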
Description: SANGER: Inhibition of human LAMA-84 cell growth in a cell viability assay.

[17] = tested on: LOX IMVI; type: functional, cell-based; conditions: Homo sapiens
Description: SANGER: Inhibition of human LOXIMVI cell growth in a cell viability assay.

[18] = tested on: LS-1034; type: functional, cell-based, Homo sapiens; conditions: Homo sapiens, LS-1034
Description: SANGER: Inhibition of human LS-1034 cell growth in a cell viability assay.

[19] = tested on: MFH-ino; type: functional, cell-based; conditions: Homo sapiens;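 note: growth inhibition of human MFH-ino cells, read out by a cell viability assay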
Description: SANGER: Inhibition of human MFH-ino cell growth in a cell viability assay.

[20] = tested on: MHH-NB-11; type: functional, cell-based, Homo sapiens; conditions: Homo sapiens, MHH-NB-11;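 note: growth inhibition of human MHH-NB-11 cells, read out by a cell viability assay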
Description: SANGER: Inhibition of human MHH-NB-11 cell growth in a cell viability assay.

[21] = tested on: MKN-1; type: functional, cell-based, Homo sapiens; conditions: Homo sapiens, MKN-1;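 note: growth inhibition of human MKN1 cells, read out by a cell viability measurement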
Description: SANGER: Inhibition of human MKN1 cell growth in a cell viability assay.

[22] = tested on: MPP-89; type: functional, cell-based, Homo sapiens; conditions: Homo sapiens, MPP-89;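 note: growth inhibition of human MPP-89 cells, read out with a cell viability assay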
Description: SANGER: Inhibition of human MPP-89 cell growth in a cell viability assay.

[23] = tested on: MZ2-MEL; type: functional, cell-based, Homo sapiens; conditions: Homo sapiens, MZ2-MEL;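 note: growth inhibition of MZ2-MEL cells read out with a cell viability assay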
Description: SANGER: Inhibition of human MZ2-MEL cell growth in a cell viability assay.

[24] = tested on: NCI-H1693; type: functional, cell-based, Homo sapiens; conditions: Homo sapiens, NCI-H1693;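 note: growth inhibition of the human cell line, read out with a cell viability assay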
Description: SANGER: Inhibition of human NCI-H1693 cell growth in a cell viability assay.

[25] = tested on: NCI-H1993; type: functional, cell-based, Homo sapiens; conditions: Homo sapiens, NCI-H1993;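 note: growth inhibition of the cancer cell line, assessed with a cell viability assay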
Description: SANGER: Inhibition of human NCI-H1993 cell growth in a cell viability assay.

[26] = tested on: NCI-H2405; type: functional, cell-based, Homo sapiens; conditions: Homo sapiens, NCI-H2405;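 note: growth inhibition of the human cell line, read out with a cell viability assay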
Description: SANGER: Inhibition of human NCI-H2405 cell growth in a cell viability assay.

[27] = tested on: NCI-H292; type: functional, cell-based, Homo sapiens; conditions: Homo sapiens, NCI-H292;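 note: growth inhibition of NCI-H292 cells, read out with a cell viability assay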
Description: SANGER: Inhibition of human NCI-H292 cell growth in a cell viability assay.

[28] = tested on: NCI-H358; type: functional, cell-based, Homo sapiens; conditions: Homo sapiens, NCI-H358;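 note: growth inhibition of NCI-H358 human cells, read out with a cell viability assay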
Description: SANGER: Inhibition of human NCI-H358 cell growth in a cell viability assay.

[29] = tested on: SH-4; type: functional, cell-based, Homo sapiens; conditions: Homo sapiens, SH-4;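 note: growth inhibition of SH-4 cells, read out with a cell viability assay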
Description: SANGER: Inhibition of human SH-4 cell growth in a cell viability assay.

[30] = tested on: SK-MEL-2; type: functional, cell-based, Homo sapiens; conditions: Homo sapiens, SK-MEL-2;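 note: growth inhibition of human SK-MEL-2 cells measured with a cell viability assay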
Description: SANGER: Inhibition of human SK-MEL-2 cell growth in a cell viability assay.

[31] = tested on: SK-MES-1; type: functional, cell-based, Homo sapiens; conditions: Homo sapiens, SK-MES-1;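 note: growth inhibition of human SK-MES-1 cells, read out with a cell viability assay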
Description: SANGER: Inhibition of human SK-MES-1 cell growth in a cell viability assay.

[32] = tested on: SW1783; type: functional, cell-based; conditions: Homo sapiens;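 note: cell growth inhibition measured with a viability assay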
Description: SANGER: Inhibition of human SW1783 cell growth in a cell viability assay.

[33] = tested on: SW 962; type: functional, cell-based, Homo sapiens; conditions: Homo sapiens, SW 962;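 note: growth inhibition of human SW962 cells, read out by a cell viability assay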
Description: SANGER: Inhibition of human SW962 cell growth in a cell viability assay.

[34] = tested on: T-24; type: functional, cell-based, Homo sapiens; conditions: Homo sapiens, T-24;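 note: growth inhibition of T-24 cells, read out with a cell viability assay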
Description: SANGER: Inhibition of human T-24 cell growth in a cell viability assay.

[35] = tested on: T98G; type: functional, cell-based, Homo sapiens; conditions: Homo sapiens, T98G;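 note: growth inhibition of T98G cells, read out by a cell viability assay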
Description: SANGER: Inhibition of human T98G cell growth in a cell viability assay.

[36] = tested on: TE-1; type: functional, cell-based, Homo sapiens; conditions: Homo sapiens, TE-1;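 note: growth inhibition of the human TE-1 cell line, read out with a cell viability assay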
Description: SANGER: Inhibition of human TE-1 cell growth in a cell viability assay.

[37] = tested on: 697; type: functional, cell-based; conditions: Homo sapiens
Description: SANGER: Inhibition of human 697 cell growth in a cell viability assay.

[38] = tested on: 786-0; type: functional, cell-based, Homo sapiens; conditions: Homo sapiens
Description: SANGER: Inhibition of human 786-0 cell growth in a cell viability assay.

[39] = tested on: A-375; type: functional, cell-based, Homo sapiens; conditions: Homo sapiens, A-375;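 note: growth inhibition of A375 cells, read out with a cell viability assay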
Description: SANGER: Inhibition of human A375 cell growth in a cell viability assay.

[40] = tested on: A704; type: functional, cell-based, Homo sapiens; conditions: Homo sapiens, A704;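 note: growth inhibition of human A704 cells, read out with a cell viability assay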
Description: SANGER: Inhibition of human A704 cell growth in a cell viability assay.

[41] = tested on: AGS; type: functional, cell-based, Homo sapiens; conditions: Homo sapiens, AGS;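 note: growth inhibition of AGS cells, determined with a cell viability assay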
Description: SANGER: Inhibition of human AGS cell growth in a cell viability assay.

[42] = tested on: ASPC1; type: functional, cell-based, Homo sapiens; conditions: Homo sapiens, ASPC1;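 note: growth inhibition of AsPC-1 cells, read out with a cell viability assay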
Description: SANGER: Inhibition of human AsPC-1 cell growth in a cell viability assay.

[43] = tested on: BB65-RCC; type: functional, cell-based, Homo sapiens; conditions: Homo sapiens, BB65-RCC;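 note: growth inhibition of the cell line, measured with a cell viability assay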
Description: SANGER: Inhibition of human BB65-RCC cell growth in a cell viability assay.

[44] = tested on: BEN; type: functional, cell-based, Homo sapiens; conditions: Homo sapiens, BEN;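 note: growth inhibition of the BEN cell line, read out with a cell viability assay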
Description: SANGER: Inhibition of human BEN cell growth in a cell viability assay.

[45] = tested on: BFTC-905; type: functional, cell-based, Homo sapiens; conditions: Homo sapiens, BFTC-905
Description: SANGER: Inhibition of human BFTC-905 cell growth in a cell viability assay.

[46] = tested on: CAL-12T; type: functional, cell-based, Homo sapiens; conditions: Homo sapiens, CAL-12T;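 note: growth inhibition of human CAL-12T cells, read out with a cell viability assay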
Description: SANGER: Inhibition of human CAL-12T cell growth in a cell viability assay.

[47] = tested on: CAL-27; type: functional, cell-based, Homo sapiens; conditions: Homo sapiens, CAL-27;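 note: Viability-based readout, IC50 reflecting inhibition of CAL-27 cell growth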
Description: SANGER: Inhibition of human CAL-27 cell growth in a cell viability assay.

[48] = tested on: TE-11; type: functional, cell-based, Homo sapiens; conditions: Homo sapiens, TE-11;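 note: growth inhibition of human TE-11 cells, read out by a cell viability assay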
Description: SANGER: Inhibition of human TE-11 cell growth in a cell viability assay.

[49] = tested on: TE-8; type: functional, cell-based, Homo sapiens; conditions: Homo sapiens, TE-8;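 note: growth inhibition of TE-8 cells, measured with a cell viability readout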
Description: SANGER: Inhibition of human TE-8 cell growth in a cell viability assay.

[50] = tested on: UMUC3; type: functional, cell-based, Homo sapiens; conditions: Homo sapiens, UMUC3;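 note: growth inhibition of human UM-UC-3 cells, read out with a cell viability assay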
Description: SANGER: Inhibition of human UM-UC-3 cell growth in a cell viability assay.

[51] = tested on: no-10; type: functional, cell-based, Homo sapiens; conditions: Homo sapiens;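 note: growth inhibition of no-10 cells, read out with a cell viability assay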
Description: SANGER: Inhibition of human no-10 cell growth in a cell viability assay.

[52] = tested on: CHL-1; type: functional, cell-based, Homo sapiens; conditions: Homo sapiens, CHL-1;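 note: cell growth inhibition, read out with a cell viability assay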
Description: SANGER: Inhibition of human CHL-1 cell growth in a cell viability assay.

CCOc1nc(NC(=O)Cc2cc(OC)ccc2OC)cc(N)c1C#N
IC50 [1]: > 10 µM | IC50 [2]: > 10 µM | IC50 [3]: > 10 µM | IC50 [4]: > 10 µM | IC50 [5]: > 10 µM | IC50 [6]: > 10 µM | IC50 [7]: > 10 µM | IC50 [8]: > 10 µM | IC50 [9]: > 10 µM | IC50 [10]: > 10 µM | IC50 [11]: > 10 µM | IC50 [12]: > 10 µM | IC50 [13]: > 10 µM | IC50 [14]: > 10 µM | IC50 [15]: > 10 µM | IC50 [16]: > 10 µM | IC50 [17]: > 10 µM | IC50 [18]: > 10 µM | IC50 [19]: > 10 µM | IC50 [20]: > 10 µM | IC50 [21]: > 10 µM | IC50 [22]: > 10 µM | IC50 [23]: > 10 µM | IC50 [24]: > 10 µM | IC50 [25]: > 10 µM | IC50 [26]: > 10 µM | IC50 [27]: > 10 µM | IC50 [28]: > 10 µM | IC50 [29]: > 10 µM | IC50 [30]: > 10 µM | IC50 [31]: > 10 µM | IC50 [32]: > 10 µM | IC50 [33]: > 10 µM | IC50 [34]: > 10 µM | IC50 [35]: > 10 µM | IC50 [36]: > 10 µM | IC50 [37]: > 10 µM | IC50 [38]: > 10 µM | IC50 [39]: > 10 µM | IC50 [40]: > 10 µM | IC50 [41]: > 10 µM | IC50 [42]: > 10 µM | IC50 [43]: > 10 µM | IC50 [44]: > 10 µM | IC50 [45]: > 10 µM | IC50 [46]: > 10 µM | IC50 [47]: > 10 µM | IC50 [48]: > 10 µM | IC50 [49]: > 10 µM | IC50 [50]: > 10 µM | IC50 [51]: > 10 µM | IC50 [52]: > 10 µM

CC(=O)O[C@@H]1[C@@H](OC(C)=O)[C@@H](O)[C@H](Oc2c(-c3ccc(O)cc3)oc3cc(O)cc(O)c3c2=O)O[C@H]1C
IC50 [1]: > 10 µM | IC50 [2]: > 10 µM | IC50 [3]: > 10 µM | IC50 [4]: > 10 µM | IC50 [5]: > 10 µM | IC50 [6]: > 10 µM | IC50 [7]: > 10 µM | IC50 [8]: > 10 µM | IC50 [9]: > 10 µM | IC50 [10]: 3.84 µM | IC50 [11]: > 10 µM | IC50 [12]: > 10 µM | IC50 [13]: > 10 µM | IC50 [14]: > 10 µM | IC50 [15]: > 10 µM | IC50 [16]: > 10 µM | IC50 [17]: > 10 µM | IC50 [18]: > 10 µM | IC50 [19]: > 10 µM | IC50 [20]: > 10 µM | IC50 [21]: > 10 µM | IC50 [22]: > 10 µM | IC50 [23]: > 10 µM | IC50 [24]: > 10 µM | IC50 [25]: > 10 µM | IC50 [26]: > 10 µM | IC50 [27]: > 10 µM | IC50 [28]: > 10 µM | IC50 [29]: > 10 µM | IC50 [30]: > 10 µM | IC50 [31]: > 10 µM | IC50 [32]: > 10 µM | IC50 [33]: > 10 µM | IC50 [34]: > 10 µM | IC50 [35]: > 10 µM | IC50 [36]: > 10 µM | IC50 [37]: > 10 µM | IC50 [38]: > 10 µM | IC50 [39]: > 10 µM | IC50 [40]: > 10 µM | IC50 [41]: > 10 µM | IC50 [42]: > 10 µM | IC50 [43]: > 10 µM | IC50 [44]: > 10 µM | IC50 [45]: > 10 µM | IC50 [46]: > 10 µM | IC50 [47]: > 10 µM | IC50 [48]: > 10 µM | IC50 [49]: > 10 µM | IC50 [50]: > 10 µM | IC50 [51]: > 10 µM | IC50 [52]: > 10 µM
